Here are results for 2 compounds from paper PMC5458547, “Discovery of first-in-class reversible dual small molecule inhibitors against G9a and DNMTs in hematological malignancies” (Nature Communications, 2017).

One data set concerns H358. Kind of data set: Cell proliferation assay (MTS). Type of data set: cell-based. To be noted: Homo sapiens, NCI-H358; NSCLC.
Another data set deals with T1, DNMT3A (Homo sapiens, UniProt Q9Y6K1).
T1 construct: purchased BPS Bioscience (contract panel)
Kind of data set: Epigenetics selectivity panel (BPS Bioscience). Type of data set: biochemical.

Another data set in a line: in vitro. Type of data set: cell-based. To be noted: human. The protocol: Cell viability was determined by measuring the concentration of cellular adenosine triphosphate (ATP) using the ATP1Step Kit as described by the manufacturer (Perkin-Elmer). PBMCs were isolated following the regular density gradient centrifugation procedure with Ficoll. Details are provided in Supplementary Information. […]
each test plate followed by incubation for 10 min at room temperature on an orbital shaker. ATP concentration was determined by reading chemical luminescence using the Envision plate reader (PerkinElmer). The percentage of viable cells relative to the non-drug treated controls was determined for […]
Cells were plated in 96-well black microplates at 100,000 cells/well density with DMEM medium (containing 10% FBS and antibiotics) and were incubated at 37 °C (5% CO2, 95% humidity) for 24 h. […] Following this 72 h exposure to test compounds, cell viability in each well was determined by measuring the concentration of cellular adenosine triphosphate (ATP) using the ATP1Step Kit as described by the manufacturer (Perkin-Elmer). […] ATP concentration was determined by reading chemical luminescence using the Envision plate reader (PerkinElmer). […]
sampler temperature was set at 7 °C and column temperature at 50 °C. For detection and quantification, the electrospray ionization operated in the positive mode, and the collision gas used was ultra-pure argon at a flow rate of 0.15 mL min−1. […]

A further data set addresses T2, JMJD3 (Homo sapiens, UniProt O15054).
T2 construct: purchased DiscoverX KINOMEscan (kinases); BPS Bioscience (epigenetic targets)
Kind of data set: Epigenetics selectivity panel (BPS Bioscience). Type of data set: biochemical.

The target of the next data set is T3, LSD1 (Homo sapiens, UniProt O60341).
T3 construct: purchased DiscoverX KINOMEscan (kinases); BPS Bioscience (epigenetic targets)
Kind of data set: Epigenetics selectivity panel (BPS Bioscience). Type of data set: biochemical.

A further data set deals with HL-60. The data set can be described thus: Cell proliferation assay (MTS). The settings on record: Homo sapiens, AML, 48 h. Type of data set: cell-based.
The next data set deals with A549. Kind of data set: Cell proliferation assay (MTS). Type of data set: cell-based. The settings on record: Homo sapiens, NSCLC.
The next data set has as its target T4, EZH1 (Homo sapiens, UniProt Q92800).
T4 construct: purchased DiscoverX KINOMEscan (kinases); BPS Bioscience (epigenetic targets)
Kind of data set: Epigenetics selectivity panel (BPS Bioscience). Type of data set: biochemical.

In another data set the test system is WM-35. The data set can be described thus: Cell proliferation assay (MTS). Type of data set: cell-based. The settings on record: Homo sapiens, WM35; Melanoma.
The next data set concerns NALM-20. Kind of data set: Cell proliferation assay (MTS). Type of data set: cell-based. The settings on record: Homo sapiens; ALL, 48 h.
The next data set addresses T5, SUV39H2 (Homo sapiens, UniProt Q9H5I1).
T5 construct: purchased DiscoverX KINOMEscan (kinases); BPS Bioscience (epigenetic targets)
Kind of data set: Epigenetics selectivity panel (BPS Bioscience). Type of data set: biochemical.

A further data set deals with UM-UC-7. Kind of data set: Cell proliferation assay (MTS). Type of data set: cell-based. To be noted: Homo sapiens; Bladder.
In a further data set the test system is OCI-AML-2. The data set can be described thus: Cell proliferation assay (MTS). Type of data set: cell-based, human. To be noted: Homo sapiens, OCI-AML2; AML, 48 h; read-out: GI50.
Another data set has as its target T6, PRMT6 (Homo sapiens, UniProt Q96LA8).
T6 construct: purchased BPS Bioscience (contract panel)
The data set can be described thus: Epigenetics selectivity panel (BPS Bioscience). Type of data set: biochemical.

The subject of another data set is KMS28BM. The data set can be described thus: Cell proliferation assay (MTS). Type of data set: cell-based. The settings on record: Homo sapiens, KMS-28BM; MM.
Another data set has as its target T7, cytochrome P450 2D6 (Homo sapiens, UniProt P10635).
T7 construct: tissue BD Gentest; host or cells: human liver microsomes
Type of data set: in vitro ADME. To be noted: microsomes, 10 min, 10 µM. The protocol:
(§1) Details are provided in Supplementary Information. […]
(§2) 3A4) was evaluated in human liver microsomes at Wuxi (http://www.wuxi.com/). Test compounds (10 µM) and the corresponding substrates for each P450 isoform (20 µL) were incubated with 140 µL liver […]
(§3) reaction was terminated by adding 400 µL cold stop solution (200 ng/mL tolbutamide in ACN) and samples were centrifuged at 4000 rpm for 20 minutes. Supernatants were analyzed by LC-MS/MS (Shimadzu LC 20-AD - API 4000), using peak area ratio of analyte/internal standard. Test compounds and positive controls were tested in duplicates. The percentage of inhibition was calculated as the ratio of substrate metabolite detected in treated and non-treated wells. […]

A further data set has as its target T8, cytochrome P450 2C19 (Homo sapiens, UniProt P33261).
T8 construct: tissue BD Gentest; host or cells: human liver microsomes
Type of data set: in vitro ADME. To be noted: microsomes, 10 min, 10 µM. On the procedure: as §1, §2, §3

The next data set deals with T9, cytochrome P450 3A4 (Homo sapiens, UniProt P08684).
T9 construct: tissue BD Gentest; host or cells: human liver microsomes
Type of data set: in vitro ADME. To be noted: microsomes, 10 min, 10 µM. The protocol: as §1, §2, §3

For a further data set, the target named is T10, cytochrome P450 2C9 (Homo sapiens, UniProt P11712).
T10 construct: tissue BD Gentest; host or cells: human liver microsomes
Type of data set: in vitro ADME. The settings on record: microsomes, 10 min, 10 µM. On the procedure: as §1, §2, §3

By GI50 is commonly meant the concentration giving 50% growth inhibition. Broadly, the IC50 is the concentration that gives 50% inhibition. A lower IC50 goes with greater potency in that assay. As a reminder, the CC50 is the concentration that lowers cell viability or growth by half. A high value points to lower toxicity to the cells. By inhibition is commonly meant the drop in the measured response relative to a control, in per cent. Higher therefore signals a strong effect.

The structures appear in SMILES notation. Bounds are passed on as bounds.

T6 sequence (Q96LA8 whole entry): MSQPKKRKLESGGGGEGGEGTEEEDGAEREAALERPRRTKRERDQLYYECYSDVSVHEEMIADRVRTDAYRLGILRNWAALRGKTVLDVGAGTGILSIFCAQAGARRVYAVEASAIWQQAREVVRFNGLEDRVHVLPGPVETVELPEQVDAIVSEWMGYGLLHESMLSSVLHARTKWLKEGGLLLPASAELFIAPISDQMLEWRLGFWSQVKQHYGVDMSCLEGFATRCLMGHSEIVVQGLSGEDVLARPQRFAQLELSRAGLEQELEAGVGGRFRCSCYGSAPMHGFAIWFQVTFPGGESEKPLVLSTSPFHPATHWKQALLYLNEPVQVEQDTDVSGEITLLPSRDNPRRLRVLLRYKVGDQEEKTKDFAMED
T1 sequence (Q9Y6K1 whole entry, looked up): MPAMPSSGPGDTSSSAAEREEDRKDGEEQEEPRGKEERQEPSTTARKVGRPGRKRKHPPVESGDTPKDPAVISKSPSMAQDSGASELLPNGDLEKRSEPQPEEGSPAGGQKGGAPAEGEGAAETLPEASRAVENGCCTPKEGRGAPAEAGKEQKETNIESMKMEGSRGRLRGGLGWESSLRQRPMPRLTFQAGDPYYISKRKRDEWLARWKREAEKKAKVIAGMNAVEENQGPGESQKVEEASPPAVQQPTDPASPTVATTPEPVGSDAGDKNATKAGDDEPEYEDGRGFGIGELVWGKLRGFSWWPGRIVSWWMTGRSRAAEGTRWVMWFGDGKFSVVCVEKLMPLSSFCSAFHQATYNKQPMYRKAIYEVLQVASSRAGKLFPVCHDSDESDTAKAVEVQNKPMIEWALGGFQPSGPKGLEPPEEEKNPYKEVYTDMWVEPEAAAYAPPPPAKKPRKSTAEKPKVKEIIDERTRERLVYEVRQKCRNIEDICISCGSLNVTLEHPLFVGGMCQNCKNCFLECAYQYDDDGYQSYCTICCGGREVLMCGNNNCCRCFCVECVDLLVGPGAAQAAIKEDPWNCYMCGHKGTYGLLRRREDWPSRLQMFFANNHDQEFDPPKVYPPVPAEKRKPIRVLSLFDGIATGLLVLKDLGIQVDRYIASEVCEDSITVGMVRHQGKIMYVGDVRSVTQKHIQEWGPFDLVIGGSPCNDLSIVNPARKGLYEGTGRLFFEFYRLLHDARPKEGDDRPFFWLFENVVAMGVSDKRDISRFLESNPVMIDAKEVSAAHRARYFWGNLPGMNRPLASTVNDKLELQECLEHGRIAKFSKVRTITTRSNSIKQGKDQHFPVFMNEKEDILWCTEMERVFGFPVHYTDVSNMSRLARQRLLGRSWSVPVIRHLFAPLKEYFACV
T5 sequence (Q9H5I1 whole entry): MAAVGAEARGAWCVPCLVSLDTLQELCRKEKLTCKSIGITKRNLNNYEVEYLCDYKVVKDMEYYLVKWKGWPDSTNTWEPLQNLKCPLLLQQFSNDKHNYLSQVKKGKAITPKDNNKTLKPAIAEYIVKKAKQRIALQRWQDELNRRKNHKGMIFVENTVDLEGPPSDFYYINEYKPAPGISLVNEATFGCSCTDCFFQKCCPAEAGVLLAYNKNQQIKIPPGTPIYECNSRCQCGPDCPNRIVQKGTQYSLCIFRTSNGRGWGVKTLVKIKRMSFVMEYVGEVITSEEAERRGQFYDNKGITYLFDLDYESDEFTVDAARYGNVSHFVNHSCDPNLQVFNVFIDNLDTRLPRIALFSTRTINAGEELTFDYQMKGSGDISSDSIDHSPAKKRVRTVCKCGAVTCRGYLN
T8 sequence (P33261 whole entry): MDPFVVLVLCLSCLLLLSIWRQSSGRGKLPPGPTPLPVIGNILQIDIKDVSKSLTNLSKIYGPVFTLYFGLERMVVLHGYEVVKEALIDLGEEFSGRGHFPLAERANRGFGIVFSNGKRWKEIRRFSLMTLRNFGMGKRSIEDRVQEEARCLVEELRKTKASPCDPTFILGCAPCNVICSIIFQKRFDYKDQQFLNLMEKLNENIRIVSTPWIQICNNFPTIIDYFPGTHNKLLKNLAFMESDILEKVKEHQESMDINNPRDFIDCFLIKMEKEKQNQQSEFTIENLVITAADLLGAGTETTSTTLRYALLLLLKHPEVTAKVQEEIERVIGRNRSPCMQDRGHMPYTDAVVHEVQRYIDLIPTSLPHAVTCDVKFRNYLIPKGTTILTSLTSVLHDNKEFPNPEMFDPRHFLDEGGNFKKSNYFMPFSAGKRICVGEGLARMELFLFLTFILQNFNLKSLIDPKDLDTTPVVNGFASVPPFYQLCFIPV
T9 sequence (P08684 whole entry): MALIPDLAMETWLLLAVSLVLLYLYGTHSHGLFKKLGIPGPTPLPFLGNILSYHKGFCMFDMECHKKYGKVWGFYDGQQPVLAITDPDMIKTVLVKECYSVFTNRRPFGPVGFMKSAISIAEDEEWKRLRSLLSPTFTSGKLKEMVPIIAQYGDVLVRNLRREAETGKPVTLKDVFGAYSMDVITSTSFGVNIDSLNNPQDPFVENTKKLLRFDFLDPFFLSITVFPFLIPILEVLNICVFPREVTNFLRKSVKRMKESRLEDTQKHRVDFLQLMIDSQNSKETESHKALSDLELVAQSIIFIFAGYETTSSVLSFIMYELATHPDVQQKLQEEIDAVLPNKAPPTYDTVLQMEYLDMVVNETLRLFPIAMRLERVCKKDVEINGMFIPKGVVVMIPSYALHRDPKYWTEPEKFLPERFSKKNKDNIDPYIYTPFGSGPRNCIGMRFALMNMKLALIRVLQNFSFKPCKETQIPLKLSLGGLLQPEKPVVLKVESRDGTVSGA
T10 sequence (P11712 whole entry): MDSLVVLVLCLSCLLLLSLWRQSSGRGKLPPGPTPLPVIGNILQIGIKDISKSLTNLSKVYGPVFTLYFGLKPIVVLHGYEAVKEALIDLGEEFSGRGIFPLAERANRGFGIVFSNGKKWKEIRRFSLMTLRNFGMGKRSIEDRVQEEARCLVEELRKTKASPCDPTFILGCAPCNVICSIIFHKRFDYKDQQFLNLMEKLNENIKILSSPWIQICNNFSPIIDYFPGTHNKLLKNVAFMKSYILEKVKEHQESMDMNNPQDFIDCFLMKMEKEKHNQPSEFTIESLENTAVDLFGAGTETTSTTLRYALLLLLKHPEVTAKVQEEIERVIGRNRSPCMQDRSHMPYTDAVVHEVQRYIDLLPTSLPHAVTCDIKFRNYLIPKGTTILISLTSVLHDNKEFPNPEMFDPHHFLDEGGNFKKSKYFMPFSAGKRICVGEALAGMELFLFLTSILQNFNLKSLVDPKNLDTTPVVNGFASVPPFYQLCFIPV
T7 sequence (P10635 whole entry): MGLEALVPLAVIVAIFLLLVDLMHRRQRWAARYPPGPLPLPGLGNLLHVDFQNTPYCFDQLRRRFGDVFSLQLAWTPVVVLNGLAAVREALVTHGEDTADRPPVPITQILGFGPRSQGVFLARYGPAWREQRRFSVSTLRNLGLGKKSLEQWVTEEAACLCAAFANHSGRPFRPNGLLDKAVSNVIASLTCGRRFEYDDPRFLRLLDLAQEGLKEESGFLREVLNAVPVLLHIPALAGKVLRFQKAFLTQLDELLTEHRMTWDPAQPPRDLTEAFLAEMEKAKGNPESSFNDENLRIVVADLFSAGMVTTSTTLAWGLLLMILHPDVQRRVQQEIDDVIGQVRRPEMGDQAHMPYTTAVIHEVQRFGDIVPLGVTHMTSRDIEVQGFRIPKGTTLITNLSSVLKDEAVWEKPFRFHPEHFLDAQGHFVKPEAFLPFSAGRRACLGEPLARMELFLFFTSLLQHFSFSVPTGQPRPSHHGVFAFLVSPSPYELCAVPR

For `COc1cc2c(NC3CCN(C)CC3)cc(-c3ccc(C)o3)nc2cc1OCCCN1CCCC1` [CM-272, 6-methoxy-2-(5-methyl-2-furyl)-N-(1-methyl-4-piperidyl)-7-(3-pyrrolidin-1-ylpropoxy)quinolin-4-amine], the 50% growth inhibitory concentration (GI50) in the data set on H358 was 0.644 µM; in the data set on HL-60, 2.9 µM; in the data set on A549, 0.937 µM; in the data set with WM-35 it was 0.854 µM; in the data set with NALM-20, above 5 µM; in the data set with UM-UC-7 it was 0.964 µM. Moreover, the 50% growth inhibitory concentration (GI50) in the data set on OCI-AML-2 came out at 0.256 µM; in the data set with KMS28BM, 1.63 µM. Moreover, the IC50 against DNMT3A was determined as 0.085 µM; at PRMT6 (BPS) it was 3 µM. The compound also registered a half-maximal cytotoxic concentration (CC50) at 72 h in “in vitro” of 1.9 µM. Also, the inhibition at 10 µM worked out at 9% against JMJD3; 0% against LSD1; 6% on EZH1; 4% against SUV39H2; 82% against PRMT6. Moreover, the “P450s Inhibition: 2D6” value at cytochrome P450 2D6 was below 10%. For the same compound, the “P450s Inhibition: 2C19” value on cytochrome P450 2C19 is given as below 10%. Also, at cytochrome P450 3A4, the “P450s Inhibition: 3A4” value is listed as below 10%. For the same compound, the “P450s Inhibition: 2C9” value on cytochrome P450 2C9 is listed as below 10%.

With `COc1cc2c(NCC3CCN(C)CC3)cc(-c3ccc(C)o3)nc2cc1OCCCN1CCCC1` [CM-579, 6-methoxy-2-(5-methyl-2-furyl)-N-[(1-methyl-4-piperidyl)methyl]-7-(3-pyrrolidin-1-ylpropoxy)quinolin-4-amine], the concentration for 50% growth inhibition (GI50) is 0.197 µM in the data set with H358; above 10 µM in the data set with HL-60; 0.122 µM with A549; 0.168 µM with WM-35; above 10 µM in the data set with NALM-20; 0.531 µM in the data set on UM-UC-7. The values for the GI50 in the data set on OCI-AML-2 and in the data set on KMS28BM were 0.49 µM and 7.82 µM, respectively. The IC50 against DNMT3A is 0.092 µM. This compound also yielded a 50% cytotoxic concentration (CC50) at 72 h in “in vitro” of 7.39 µM. Also, the inhibition at 10 µM on JMJD3 came to 3%; at LSD1, 24%; against EZH1, 17%; against SUV39H2 it was 0%; against PRMT6, 40%. Besides, the “P450s Inhibition: 2D6” value at cytochrome P450 2D6 is reported as below 10%. Besides, at cytochrome P450 2C19, the “P450s Inhibition: 2C19” value was below 10%. In addition, the “P450s Inhibition: 3A4” value on cytochrome P450 3A4 is reported as below 10%. For the same compound, the “P450s Inhibition: 2C9” value on cytochrome P450 2C9 is recorded as below 10%.
